Activity calls are given as the source filed them. The calls are words filed in the database; no cut-off is given here.
Columns and labels:
[1] = molecular target: T1, Thymidylate synthase (Lactobacillus casei) (UniProt P00469); assay: Irreversible inhibition of thymidylate synthase purified from methotrexate-resistant Lactobacillus casei using 2'-deoxy[5-3H]uridine 5'-phosphate preincubated at 4 uM for 12 mins in absence of co-factor; settings: Lacticaseibacillus casei
T1 sequence (whole entry): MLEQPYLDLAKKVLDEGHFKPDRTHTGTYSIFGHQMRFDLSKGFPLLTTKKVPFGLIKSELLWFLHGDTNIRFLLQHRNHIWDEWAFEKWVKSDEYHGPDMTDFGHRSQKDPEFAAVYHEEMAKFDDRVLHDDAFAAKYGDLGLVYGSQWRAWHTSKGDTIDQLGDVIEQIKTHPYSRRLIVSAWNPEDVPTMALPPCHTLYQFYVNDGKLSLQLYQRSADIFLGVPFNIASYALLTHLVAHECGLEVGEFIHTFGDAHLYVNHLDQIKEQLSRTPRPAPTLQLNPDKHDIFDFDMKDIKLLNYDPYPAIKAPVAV

Thymidylate synthase = molecular target: T2, Thymidylate synthase (Lactobacillus casei, UniProt P00469); assay: Competitive inhibition of thymidylate synthase purified from methotrexate-resistant Lactobacillus casei using 2'-deoxy[5-3H]uridine 5'-phosphate by radioisotope assay; parameters: species or system Lacticaseibacillus casei
T2 sequence (P00469 whole entry): T1 sequence (whole entry)

Compound | inhibition [1] | Ki (Thymidylate synthase) [nM]
N#Cc1cn([C@H]2C[C@H](O)[C@@H](COP(=O)(O)O)O2)c(=O)[nH]c1=O | inactive | 550
O=c1[nH]c(=O)n([C@H]2C[C@H](O)[C@@H](COP(=O)(O)O)O2)cc1[N+](=O)[O-] | – | 29
O=c1[nH]c(=O)n([C@H]2C[C@H](O)[C@@H](COP(=O)(O)O)O2)cc1S | – | 40
